The text below walks through data of ChEMBL document CHEMBL5728520, “Carboxamide-pyrimidine derivatives as SHP2 antagonists” (2021).

Some results are limits rather than exact numbers.

This assay addresses T1, Tyrosine-protein phosphatase non-receptor type 11 (Homo sapiens, UniProt Q06124).
T1 sequence (Q06124 whole entry): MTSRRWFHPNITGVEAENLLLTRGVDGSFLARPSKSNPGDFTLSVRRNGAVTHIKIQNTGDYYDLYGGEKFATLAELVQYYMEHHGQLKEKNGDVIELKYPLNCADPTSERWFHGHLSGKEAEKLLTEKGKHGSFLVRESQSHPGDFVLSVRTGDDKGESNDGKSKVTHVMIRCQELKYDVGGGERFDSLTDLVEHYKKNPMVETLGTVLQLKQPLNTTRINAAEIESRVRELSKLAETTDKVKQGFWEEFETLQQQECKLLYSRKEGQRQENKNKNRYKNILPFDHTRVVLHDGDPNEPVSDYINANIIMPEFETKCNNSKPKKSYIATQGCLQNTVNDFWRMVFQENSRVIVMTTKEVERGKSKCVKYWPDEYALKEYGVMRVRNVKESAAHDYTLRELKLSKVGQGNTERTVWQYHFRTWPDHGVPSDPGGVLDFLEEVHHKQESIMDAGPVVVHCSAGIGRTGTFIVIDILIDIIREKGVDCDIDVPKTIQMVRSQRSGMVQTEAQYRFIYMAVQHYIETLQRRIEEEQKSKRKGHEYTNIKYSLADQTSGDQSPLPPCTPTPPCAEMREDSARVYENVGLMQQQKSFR
Kind of assay: Biochemical Assay: The inhibition of SHP2 by compounds of the invention was monitored using the surrogate substrate DiFMUP after protein activation by a peptide bearing two appropriately spaced phosphotyrosine. Full length SHP2 protein (Recombinant HumanSHP-2, E. coli derived Ser2Arg593, N-terminal 6His tag from R&D systems; […]) was incubated with activating peptide, IRSI_2pY (New England Peptide, 140 nM) and DiFMUP (molecular probes, 80 uM) at RT in buffer (HEPES pH 7.2 60 mM, DDT 5 mM, KCl 75 mM, NaCl 75 mM, EDTA 1 mM, Tween 20 0.05%) in presence of compound (10 concentrations range, top concentration 50 Î¼M) for 60 min. The generation of the DiFMU product by activated SHP2 was monitored through Fluorescence measurement with a PerkinElmer Envision reader.
`CC1(N)CCN(c2ncc(-c3cccc(Cl)c3Cl)c(C(N)=O)n2)CC1`: the 50% inhibitory concentration (IC50) turned out to be 3.7 µM. Then `C[C@]12CCCCC[C@](C)(CN(c3nc(N)c(-c4cccc(Cl)c4Cl)c(C(N)=O)n3)C1)[C@H]2N`, with > 10 µM; and `CC1(N)CCN(c2nc(Cl)c(-c3cccc(Cl)c3Cl)c(C(N)=O)n2)CC1`, with 0.06 µM.
